{
  "source": "patent US20250032460A1",
  "about": "“METHODS OF TREATING NEUROLOGICAL DISORDERS” (MapLight Therapeutics, Inc., priority 2021, published 2025)",
  "key": {"[1]": {"test": "Plasma pharmacokinetics after single-dose intravenous administration in rats", "format": "in vivo, Sprague Dawley rats", "conditions": "for AUClast of desfesoterodine / C0 of desfesoterodine: IV", "procedure": "The plasma concentration-time profile was evaluated for fesoterodine active metabolite desfesoterodine and Compound 1 in male Sprague Dawley rats following single-dose intravenous administration of fesoterodine (0.25 mg/kg) and Compound 1 (0.5 mg/kg and 1.5 mg/kg) alone and single-dose co-administration. Plasma exposures of desfesoterodine were similar following administration of fesoterodine alone and in combination with Compound 1."}, "[2]": {"test": "Post-procedure plasma exposure (salivation study)", "format": "in vivo, Sprague Dawley rats", "procedure": "An in vivo primary pharmacology study evaluating the fesoterodine fumarate dose-response antagonistic effect on Compound 1 induced salivation in anaesthetized male Sprague Dawley rats was conducted. […] Intravenous fesoterodine doses were administered at […]. Fesoterodine was dosed 10 minutes prior to dosage of Compound 1. All animals were normal with no observed abnormality detected in clinical signs or behavior. Salivation was measured by using oral dry swab in anesthetized rats with the calculated difference between the dry swab weight and the wet swab weight indicating the weight of saliva produced. Samples were collected post-dosing for one hour at 10-minute intervals.\nAt the end of the study period, plasma samples were collected to measure exposure of Compound 1, fesoterodine fumarate, and fesoterodine active metabolite 5-hydroxymethyl tolterodine (5-HMT), also referred to as desfesoterodine, is summarized in Table 2."}, "[3]": {"test": "Plasma concentrations during 7-day oral dosing in beagle dogs", "format": "in vivo", "conditions": "Group 2: fesoterodine fumarate 3 mg/kg/day PO alone"}, "[4]": {"conditions": "Fesoterodine: 0.25 + Compound 1: 0.5 mg/kg"}, "[5]": {"conditions": "Fesoterodine: 0.25 + Compound 1: 1.5 mg/kg"}},
  "note": "Several values for one entry are separate records, joined by “and”; a condition that tells them apart may be missing. Equal values may be shown once.",
  "data": [
    {"molecule": "CC(C)N(CCC(c1ccccc1)c1cc(CO)ccc1O)C(C)C", "note": "(stereo not shown) [desfesoterodine, 5-hydroxymethyl tolterodine]", "values": [
      {"measurement": "AUClast of desfesoterodine", "setting": "[1]; Fesoterodine: 0.25 mg/kg alone", "value": 15.41, "unit": "ng·h/mL"},
      {"measurement": "C0 of desfesoterodine", "setting": "[1]; Fesoterodine: 0.25 mg/kg alone", "value": 27.09, "unit": "ng/mL"},
      {"measurement": "AUClast of desfesoterodine", "setting": "[1]; [4]", "value": 13.05, "unit": "ng·h/mL"},
      {"measurement": "C0 of desfesoterodine", "setting": "[1]; [4]", "value": 34.63, "unit": "ng/mL"},
      {"measurement": "AUClast of desfesoterodine", "setting": "[1]; [5]", "value": 13.73, "unit": "ng·h/mL"},
      {"measurement": "C0 of desfesoterodine", "setting": "[1]; [5]", "value": 38.71, "unit": "ng/mL"},
      {"measurement": "plasma exposures of desfesoterodine, fesoterodine alone vs in combination with Compound 1", "setting": "[1]; fesoterodine 0.25 mg/kg IV, rats", "value": "similar"},
      {"measurement": "Plasma Concentration 1-Hour Post-procedure (mean value), Desfesoterodine (5-HMT)", "setting": "[2]; Fesoterodine 0.0078 mg/mL + Compound 1 (1.5 mg/kg)", "value": "BLQ"},
      {"measurement": "Plasma Concentration 1-Hour Post-procedure (mean value), Desfesoterodine (5-HMT)", "setting": "[2]; Fesoterodine 0.0156 mg/mL + Compound 1 (1.5 mg/kg)", "value": "BLQ"},
      {"measurement": "Plasma Concentration 1-Hour Post-procedure (mean value), Desfesoterodine (5-HMT)", "setting": "[2]; Fesoterodine 0.0312 mg/mL + Compound 1 (1.5 mg/kg)", "value": "BLQ"},
      {"measurement": "Plasma Concentration 1-Hour Post-procedure (mean value), Desfesoterodine (5-HMT)", "setting": "[2]; Fesoterodine 0.0625 mg/mL + Compound 1 (1.5 mg/kg)", "value": "BLQ"},
      {"measurement": "Plasma Concentration 1-Hour Post-procedure (mean value), Desfesoterodine (5-HMT)", "setting": "[2]; Fesoterodine 0.125 mg/mL + Compound 1 (1.5 mg/kg)", "value": "BLQ"},
      {"measurement": "Plasma Concentration 1-Hour Post-procedure (mean value), Desfesoterodine (5-HMT)", "setting": "[2]; Fesoterodine 0.25mg/mL + Compound 1 (1.5 mg/kg)", "value": 5.15, "unit": "ng/mL"},
      {"measurement": "Plasma Concentration 1-Hour Post-procedure (mean value), Desfesoterodine (5-HMT)", "setting": "[2]; Fesoterodine 0.5 mg/mL + Compound 1 (1.5 mg/kg)", "value": 6.19, "unit": "ng/mL"},
      {"measurement": "Plasma concentration of desfesoterodine, Mean", "setting": "[3]; Day 1, 0.25 h", "value": 87.775, "unit": "ng/mL"},
      {"measurement": "Plasma concentration of desfesoterodine, individual animals D2001-D2005", "setting": "[3]; Day 1, 0.25 h", "value": "34.2 ng/ml and 267 ng/ml and 14 ng/ml and BQL and 35.9 ng/ml"},
      {"measurement": "Plasma concentration of desfesoterodine, Mean", "setting": "[3]; Day 1, 0.5 h", "value": 75.32, "unit": "ng/mL"},
      {"measurement": "Plasma concentration of desfesoterodine, individual animals D2001-D2005", "setting": "[3]; Day 1, 0.5 h", "value": "68.4 ng/mL and 176 ng/mL and 75.3 ng/mL and 23.2 ng/mL and 33.7 ng/mL"},
      {"measurement": "Plasma concentration of desfesoterodine, Mean", "setting": "[3]; Day 1, 1 h", "value": 53.38, "unit": "ng/mL"},
      {"measurement": "Plasma concentration of desfesoterodine, individual animals D2001-D2005", "setting": "[3]; Day 1, 1 h", "value": "31.9 ng/mL and 104 ng/mL and 49.5 ng/mL and 67.6 ng/mL and 13.9 ng/mL"},
      {"measurement": "Plasma concentration of desfesoterodine, Mean", "setting": "[3]; Day 1, 2 h", "value": 25.296, "unit": "ng/mL"},
      {"measurement": "Plasma concentration of desfesoterodine, individual animals D2001-D2005", "setting": "[3]; Day 1, 2 h", "value": "15.6 ng/mL and 48.4 ng/mL and 15.7 ng/mL and 41.4 ng/mL and 5.38 ng/mL"},
      {"measurement": "Plasma concentration of desfesoterodine, Mean", "setting": "[3]; Day 1, 4 h", "value": 10.096, "unit": "ng/mL"},
      {"measurement": "Plasma concentration of desfesoterodine, individual animals D2001-D2005", "setting": "[3]; Day 1, 4 h", "value": "12.9 ng/mL and 15.4 ng/mL and 3.93 ng/mL and 14.9 ng/mL and 3.35 ng/mL"},
      {"measurement": "Plasma concentration of desfesoterodine, Mean", "setting": "[3]; Day 1, 8 h", "value": 3.3175, "unit": "ng/mL"},
      {"measurement": "Plasma concentration of desfesoterodine, individual animals D2001-D2005", "setting": "[3]; Day 1, 8 h", "value": "4.42 ng/ml and 1.74 ng/ml and 2.96 ng/ml and 4.15 ng/ml and BQL"},
      {"measurement": "Plasma concentration of desfesoterodine, individual animals D2001-D2005", "setting": "[3]; Day 1, 24 h", "value": "BQL"},
      {"measurement": "Plasma concentration of desfesoterodine, individual animals D2001-D2005", "setting": "[3]; Day 7, 0 h", "value": "1.13 ng/ml and BQL (4×)"},
      {"measurement": "Plasma concentration of desfesoterodine, Mean", "setting": "[3]; Day 7, 0.25 h", "value": 103.4, "unit": "ng/mL"},
      {"measurement": "Plasma concentration of desfesoterodine, individual animals D2001-D2005", "setting": "[3]; Day 7, 0.25 h", "value": "15.3 ng/mL and 315 ng/mL and 121 ng/mL and 47.3 ng/mL and 18.4 ng/mL"},
      {"measurement": "Plasma concentration of desfesoterodine, Mean", "setting": "[3]; Day 7, 0.5 h", "value": 167.64, "unit": "ng/mL"},
      {"measurement": "Plasma concentration of desfesoterodine, individual animals D2001-D2005", "setting": "[3]; Day 7, 0.5 h", "value": "318 ng/mL and 274 ng/mL and 154 ng/mL and 75.6 ng/mL and 16.6 ng/mL"},
      {"measurement": "Plasma concentration of desfesoterodine, Mean", "setting": "[3]; Day 7, 1 h", "value": 118.7, "unit": "ng/mL"},
      {"measurement": "Plasma concentration of desfesoterodine, individual animals D2001-D2005", "setting": "[3]; Day 7, 1 h", "value": "173 ng/mL and 232 ng/mL and 111 ng/mL and 65.7 ng/mL and 11.8 ng/mL"},
      {"measurement": "Plasma concentration of desfesoterodine, Mean", "setting": "[3]; Day 7, 2 h", "value": 78.62, "unit": "ng/mL"},
      {"measurement": "Plasma concentration of desfesoterodine, individual animals D2001-D2005", "setting": "[3]; Day 7, 2 h", "value": "91.9 ng/mL and 145 ng/mL and 72.6 ng/mL and 57.8 ng/mL and 25.8 ng/mL"},
      {"measurement": "Plasma concentration of desfesoterodine, Mean", "setting": "[3]; Day 7, 4 h", "value": 45.66, "unit": "ng/mL"}
    ]}
  ]
}
